US8455523B2, “Compositions and methods for treating hyperlipidemias” (The Research Foundation of State University of New York, priority 2010, dated 2013)

How the values were obtained:
[1] = tested on: C57Bl/6J mice fed western diet; assay: MTP inhibitor CP-346086 with or without lovastatin or WY14643 in western diet fed mice: plasma/hepatic lipids, AST/ALT; type: in vivo; conditions: WD 8 weeks
Experimental: FIGS. 4a and 4b. Effect of MTP inhibitor (CP-34086) on plasma lipids and lipoproteins in C57Bl/6J mice fed western diet ad libitum for 8 weeks. MTP inhibitor solubilzed in DMSO was administered orally for one week (15 mg/kg/day) along with either DMSO (MTPi), lovastatin (50 mg/kg/day), or WY14643 (10 mg/kg/day). Control mice were gavaged with DMSO only.
FIGS. 5a and 5b. Liver samples from FIG. 4 were used to measure MTP activity (A) and hepatic lipids (B-E). Stars on MPTi group represent comparison between Control and MTPi groups.
Control group (n=4) received daily oral gavage of DMSO alone. MTPi group received 15 mg/kg/day MTP inhibitor CP-346086 (MTPi) once daily. […] Plasma total and HDL cholesterol were unaffected by MTPi. Combined treatment of MTPi and lovastatin decreased plasma LDL cholesterol. […] Next, we measured changes in plasma hepatic enzymes (FIGS. 4G-H). […] These studies indicate that apart from lowering plasma triglyceride, MTPi enhances plasma AST/ALT and these increases can be avoided by the co-administration of lovastatin.

[2] = tested on: Reversa mice
Experimental: FIG. 11. Reversa animals were injected with plpC every other day for one week. Lovastatin, T-090317 and WY14643 were administered by oral gavage everyday for 30 days after the first injection. Animals were sacrificed on day 30 and plasma and livers were harvested and analyzed. * represent comparison to PBS injected animals and # represent comparisons to plpC control.
Animals: Mttp^tm2Sgy LdIr^tm1Her Apob^tm2Sgy Tg(Mx1-cre)1Cgn/J mice (Reversa) (stock number 004192) were obtained from Jackson Laboratories. Male reversa mice were used to study the effect of mttp gene deletion on plasma and tissue lipids. These animals are transgenic for apolipoprotein B, LDLR^−/− and floxed at exon 1 of the mttp locus. In addition, these mice express cre recombinase under the control of the Mx1 promoter, which is induced after intraperitoneal injection of polyinosinic polycytidylic ribonucleic acid (plpC—Sigma) in the liver, spleen and intestine. Injection of plpC activates the cre recombinase and deletes the mttp gene in the liver and intestines. Reversa mice were injected with either PBS or plpC. Mice injected with plpC were orally gavaged with DMSO (Sigma-Aldrich D8418), DMSO+Lovastatin (50 mg/kg/day) (Calbiochem 438186), DMSO+T0901317 (50 mg/kg/day) (Calbiochem 575310), or DMSO+WY14643 (10 mg/kg/day) (Calbiochem 681725). Mice injected with plpC were also injected with either PBS or Ω-3 fatty acids (SUNY Downstate Medical Center). All animals were given supplemental treatments for 30 days.
All animals were kept in 07:00-19:00 h lighting schedule. […] Food was withdrawn 16 h before the sacrifice of the mice. On the day of the experiment, mice were anesthetized and blood was collected from the heart. Liver was collected, washed in ice-cold PBS, cut into small pieces and used for lipid extraction, histological staining, to measure different protein activities/quantities and for mRNA analysis. Lipids were extracted from the tissue homogenates following the Bligh and Dyer method. Triglyceride (Infinity TM Triglyceride, TR22421) and total cholesterol (Infinity TM Cholesterol, TR13421) levels in the tissues were determined using commercial kits (Thermo Scientific). Free cholesterol and free fatty acid levels were measured using kits from Wako Chemicals (Germany). Esterified cholesterol was calculated by subtracting the free cholesterol from the total cholesterol.
To determine whether accumulation of hepatic triglyceride and free cholesterol is related to increases in plasma AST/ALT, we sought to reduce these lipids using different chemical compounds of known physiologic effects. Mice injected with plpC were orally gavaged with DMSO, DMSO+Lovastatin (50 mg/kg/day), DMSO+T0901317 (50 mg/kg/day), or DMSO+WY14643 (10 mg/kg/day). Lovastatin (Lova), an HMG-CoA reductase (HMGR) inhibitor, and T0901317 (T0), an LXR agonist, are expected to decrease hepatic free cholesterol by inhibiting endogenous cholesterol synthesis and increasing cholesterol efflux, respectively. WY14643 (WY), a PPARα agonist, increases β-oxidation of fatty acids and lowers hepatic triglycerides.
To evaluate the efficacy of Ω-3 FA in reducing hepatic triglyceride, plpC injected mice were treated with intraperitoneal injection of Ω-3 FA (3 mg/kg/2 day) or Ω-3 FA and Lova.

[3] = biological target: T1, MTP (Mus musculus, UniProt O08601); assay: Determination of MTP activity in tissues (liver homogenates of treated mice); type: in vivo; conditions: Reversa mice, plpC vs PBS
T1 construct: small pieces (0.1 g) of liver and ˜1-cm segments of proximal small intestine were homogenized; from tissue; host or cells: mouse liver (C57BL/6J; Reversa mice in some experiments); supernatant of ultracentrifuged homogenate
T1 sequence (O08601 22-894): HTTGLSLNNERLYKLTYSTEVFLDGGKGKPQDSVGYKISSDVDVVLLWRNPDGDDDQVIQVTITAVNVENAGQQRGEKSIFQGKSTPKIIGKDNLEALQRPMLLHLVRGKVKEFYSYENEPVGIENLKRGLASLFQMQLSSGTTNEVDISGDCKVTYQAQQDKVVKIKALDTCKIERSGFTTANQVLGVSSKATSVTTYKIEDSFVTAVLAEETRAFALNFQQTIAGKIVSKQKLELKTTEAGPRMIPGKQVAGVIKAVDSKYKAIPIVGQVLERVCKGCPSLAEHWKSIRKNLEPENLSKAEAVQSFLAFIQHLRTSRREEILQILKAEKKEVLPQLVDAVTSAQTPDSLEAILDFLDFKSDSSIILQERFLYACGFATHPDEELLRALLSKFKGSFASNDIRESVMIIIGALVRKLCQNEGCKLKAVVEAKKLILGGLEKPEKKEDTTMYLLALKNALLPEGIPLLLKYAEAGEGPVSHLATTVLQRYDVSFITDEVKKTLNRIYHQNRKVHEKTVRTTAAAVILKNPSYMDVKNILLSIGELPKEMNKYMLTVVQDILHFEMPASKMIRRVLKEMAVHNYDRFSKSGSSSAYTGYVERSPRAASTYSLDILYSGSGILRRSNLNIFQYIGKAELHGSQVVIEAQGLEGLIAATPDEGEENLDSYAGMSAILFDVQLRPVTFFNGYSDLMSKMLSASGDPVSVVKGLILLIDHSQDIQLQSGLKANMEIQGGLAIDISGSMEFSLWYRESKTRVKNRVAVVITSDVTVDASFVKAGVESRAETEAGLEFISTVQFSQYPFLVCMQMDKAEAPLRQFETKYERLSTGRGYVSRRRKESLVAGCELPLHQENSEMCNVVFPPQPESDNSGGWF
T1 sequence (P09103 21-509 partner limits assumed): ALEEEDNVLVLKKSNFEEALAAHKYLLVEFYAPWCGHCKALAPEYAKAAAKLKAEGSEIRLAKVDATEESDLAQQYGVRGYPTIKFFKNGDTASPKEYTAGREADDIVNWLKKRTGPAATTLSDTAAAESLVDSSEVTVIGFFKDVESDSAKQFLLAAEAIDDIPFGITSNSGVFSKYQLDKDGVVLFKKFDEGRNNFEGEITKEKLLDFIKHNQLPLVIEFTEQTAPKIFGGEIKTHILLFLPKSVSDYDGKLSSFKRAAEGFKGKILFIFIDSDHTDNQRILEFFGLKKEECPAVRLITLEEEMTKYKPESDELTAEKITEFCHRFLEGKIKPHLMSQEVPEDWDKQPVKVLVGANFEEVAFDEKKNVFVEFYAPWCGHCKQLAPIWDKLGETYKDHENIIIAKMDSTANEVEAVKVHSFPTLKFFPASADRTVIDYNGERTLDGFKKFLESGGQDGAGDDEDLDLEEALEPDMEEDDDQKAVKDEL
Experimental: After extensive washes with ice-cold PBS, small pieces (0.1 g) of liver and ˜1-cm segments of proximal small intestine were homogenized with 1 ml of ice-cold 1 mM Tris-HCl, pH 7.6, 1 mM EGTA, and 1 mM MgCl2 buffer in a glass homogenizer. The homogenates were centrifuged (SW55 Ti rotor, 50,000 rpm, 10° C., 1 h), and supernatants were used for MTP assay as described before (41; 42) using a kit (Chylos, Inc.).

[4] = CP-346086 15 mg/kg/day oral 1 week, vs control
[5] = MTP deficient (plpC) Reversa mice, oral 30 days
[6] = plpC-injected Reversa mice, Lova 50, T0 50, WY 10 mg/kg/day oral or Ω-3 FA 3 mg/kg/2 day ip, vs plpC control

O=C(Nc1ccc2c(c1)CCN(Cc1ncn[nH]1)C2)c1ccccc1-c1ccc(C(F)(F)F)cc1 [CP-346086]
plasma AST/ALT ([1]; CP-346086 15 mg/kg/day 1 week ± lovastatin 50 or WY14643 10 mg/kg/day, MTPi vs control, co-drugs vs MTPi): significantly enhanced
Plasma total and HDL cholesterol [1, 4]: unaffected
plasma total and LDL triglyceride, and LDL cholesterol [1, 4]: significantly lower

O=S(=O)(c1ccccc1)N(CC(F)(F)F)c1ccc(C(O)(C(F)(F)F)C(F)(F)F)cc1 [T0901317]
plasma cholesterol [2, 5]: no effect
plasma triglycerides [2, 5]: no effect
hepatic free and total cholesterol [2, 6]: significantly reduced
hepatic triglyceride [2, 6]: no effect

polyinosinic polycytidylic ribonucleic acid [plpC]
decrease in non-HDL-cholesterol ([2]; Reversa mice, plpC vs PBS): ~40%
decrease of plasma total triglyceride and cholesterol ([2]; Reversa mice, plpC vs PBS): 50%
increase of hepatic free cholesterol ([2]; Reversa mice, plpC vs PBS): 50%
increase of hepatic triglyceride ([2]; Reversa mice, plpC vs PBS): 2 fold
increase of plasma ALT and AST ([2]; Reversa mice, plpC vs PBS): 2-3 fold
reduction of hepatic cholesteryl esters (CE) ([2]; Reversa mice, plpC vs PBS): ~30%
reduction of hepatic MTP activity compared to controls [3]: ~75%
